c1ccc2ccccc2c1
Settings | solubility (mole fraction)
in DMF, 278.05 K | 0.162
in DMF, 283.05 K | 0.185
in DMF, 288.15 K | 0.215
in DMF, 292.75 K | 0.244
in DMF, 298.05 K | 0.281
in DMF, 303.25 K | 0.307
in DMF, 307.95 K | 0.354
in DMF, 313.15 K | 0.406
in DMF, 318.15 K | 0.465
in NMP, 278.18 K | 0.269
in NMP, 283.25 K | 0.289
in NMP, 288.17 K | 0.307
in NMP, 293.2 K | 0.336
in NMP, 298.16 K | 0.379
in NMP, 303.21 K | 0.41
in NMP, 308.17 K | 0.438
in NMP, 313.16 K | 0.486
in NMP, 318.21 K | 0.535
in NMP, 323.27 K | 0.577
in THF, 278.6 K | 0.241
in THF, 284.35 K | 0.273
in THF, 288.25 K | 0.292
in THF, 293.25 K | 0.324
in THF, 298 K | 0.352
in THF, 303.2 K | 0.385
in THF, 308.19 K | 0.428
in THF, 313.25 K | 0.469
in THF, 318.35 K | 0.51
in THF, 323.2 K | 0.566
in THF, 328.21 K | 0.6
in THF, 333.22 K | 0.629
in acetone, 278.15 K | 0.124
in acetone, 283.15 K | 0.143
in acetone, 288.05 K | 0.171
in acetone, 293.25 K | 0.194
in acetone, 298.35 K | 0.226
in acetone, 303 K | 0.268
in acetone, 308.1 K | 0.307
in acetone, 313.05 K | 0.361
in acetone, 318.15 K | 0.417
in acetone, 323.05 K | 0.477
in ethyl acetate, 278.2 K | 0.174
in ethyl acetate, 283.17 K | 0.191
in ethyl acetate, 288.21 K | 0.217
in ethyl acetate, 293.19 K | 0.233
in ethyl acetate, 298.25 K | 0.276
in ethyl acetate, 303.2 K | 0.314
in ethyl acetate, 308.21 K | 0.357
in ethyl acetate, 313.23 K | 0.406
in ethyl acetate, 318.17 K | 0.465
in ethyl acetate, 323.21 K | 0.526
in isobutyl acetate, 278.18 K | 0.183
in isobutyl acetate, 283.2 K | 0.205
in isobutyl acetate, 288.22 K | 0.232
in isobutyl acetate, 293.23 K | 0.259
in isobutyl acetate, 298.19 K | 0.299
in isobutyl acetate, 303.23 K | 0.335
in isobutyl acetate, 308.45 K | 0.387
in isobutyl acetate, 313.2 K | 0.433
in isobutyl acetate, 318.17 K | 0.483
in isobutyl acetate, 323.21 K | 0.539
in n-butyric acid, 278.17 K | 0.0834
in n-butyric acid, 283.27 K | 0.0952
in n-butyric acid, 288.45 K | 0.113
in n-butyric acid, 293.2 K | 0.129
in n-butyric acid, 298.26 K | 0.154
in n-butyric acid, 303.22 K | 0.179
in n-butyric acid, 308.2 K | 0.215
in n-butyric acid, 313.3 K | 0.253
in n-butyric acid, 318.19 K | 0.292
in n-butyric acid, 323.28 K | 0.34

— BigSolDB 2.1
